# Results reported in patent US20240209028A1, “CNP COMPOUNDS” (priority 2022, published 2024).
# Starred links: 1 amine or outer side, 2 acyl side, 3 side chain; linkers in the order of their positions; H or OH if unused. Positions of bridges follow the written chain, without caps; N, C: chain ends. Residues, ends and D or L forms follow the SMILES beside them. *: point of attachment. C18 diacid = O=C(O)CCCCCCCCCCCCCCCCC(=O)*; γGlu = O=C(O)[C@H](CCC(=O)[*:2])N[*:1]; AEEA = NCCOCCOCC(=O)O
# Biological target: T1, human natriuretic peptide receptor 2 (hNPR2) (Homo sapiens, UniProt P20594)
# T1 construct: expressed in transfected cells; host or cells: HEK293 (ATCC CRL-1573), clone 35, co-transfected with pGloSensor-42F
# T1 sequence (P20594 23-1047): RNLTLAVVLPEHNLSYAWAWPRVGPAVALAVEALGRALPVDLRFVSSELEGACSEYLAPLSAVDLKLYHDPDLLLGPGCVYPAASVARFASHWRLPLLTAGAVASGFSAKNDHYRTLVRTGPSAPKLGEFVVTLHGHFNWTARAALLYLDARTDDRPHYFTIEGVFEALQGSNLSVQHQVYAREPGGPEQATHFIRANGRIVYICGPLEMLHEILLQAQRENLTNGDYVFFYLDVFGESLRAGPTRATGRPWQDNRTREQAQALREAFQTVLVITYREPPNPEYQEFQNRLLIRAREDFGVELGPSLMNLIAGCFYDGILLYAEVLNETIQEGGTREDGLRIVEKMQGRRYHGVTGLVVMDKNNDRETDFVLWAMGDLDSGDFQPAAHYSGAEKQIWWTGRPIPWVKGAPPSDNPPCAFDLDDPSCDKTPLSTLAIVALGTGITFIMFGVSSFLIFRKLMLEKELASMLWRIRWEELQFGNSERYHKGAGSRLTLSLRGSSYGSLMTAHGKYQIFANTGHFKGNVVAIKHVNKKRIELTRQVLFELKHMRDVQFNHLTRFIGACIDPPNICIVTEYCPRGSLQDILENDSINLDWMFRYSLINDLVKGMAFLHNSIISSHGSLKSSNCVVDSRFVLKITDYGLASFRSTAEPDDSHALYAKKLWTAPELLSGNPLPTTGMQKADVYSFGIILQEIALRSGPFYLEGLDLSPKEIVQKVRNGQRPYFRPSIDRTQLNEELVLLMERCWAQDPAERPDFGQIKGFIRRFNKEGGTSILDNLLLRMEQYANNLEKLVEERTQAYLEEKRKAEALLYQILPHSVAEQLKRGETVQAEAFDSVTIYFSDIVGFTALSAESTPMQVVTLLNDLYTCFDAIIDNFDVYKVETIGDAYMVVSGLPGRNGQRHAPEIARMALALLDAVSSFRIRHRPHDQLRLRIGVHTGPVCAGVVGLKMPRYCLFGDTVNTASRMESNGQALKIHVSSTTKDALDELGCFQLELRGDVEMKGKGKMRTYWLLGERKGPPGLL
# Test: In vitro hNPR2 activity assay (cGMP GloSensor reporter, HEK293)
# Assay type: cell-based
# Conditions: potency relative to CNP22 (0065)
# In short: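 Potency is the EC50 from a four-parameter logistic fit, also expressed relative to the in-plate CNP22 control (×100), with at least two replicates. Compounds (ten concentrations, […], HSA-free diluent with 1% OVA, 0.01% Tween20) were incubated 30 min at 37 °C on HEK293 cells co-expressing hNPR2 and a GloSensor cGMP luciferase. Luminescence detected with Bright-Glo.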
row,SMILES,hNPR2 0% HSA. [EC50% rel CNP] [%]
1,CC[C@H](C)[C@@H]1NC(=O)[C@H](CCCNC(=N)N)NC(=O)[C@H](CC(=O)O)NC(=O)[C@H](CC(C)C)NC(=O)[C@@H]2CCCN2C(=O)[C@H](CC(C)C)NC(=O)CNC(=O)[C@H](Cc2ccccc2)NC(=O)[C@@H](NC(=O)CNC(=O)[C@H](CCCCN)NC(=O)[C@H](CO)NC(=O)[C@H](CC(C)C)NC(=O)CNC(=O)[C@H](CCCCN)NC(=O)[C@H](CCCCN)NC(=O)[C@H](CCC(N)=O)NC(=O)[C@H](C)NC(=O)CNC(=O)[C@H](CCC(=O)O)NC(=O)[C@H](Cc2ccc(O)cc2)NC(=O)[C@H](CCCCN)NC(=O)[C@H](CCCNC(=N)N)NC(=O)[C@H](C)NC(=O)[C@H](CCC(N)=O)NC(=O)[C@@H]2CCCN2C(=O)[C@H](Cc2c[nH]cn2)NC(=O)[C@H](CCC(=O)O)NC(=O)[C@H](CCC(N)=O)NC(=O)CC[C@H](NC(=O)CC[C@H](NC(=O)CC[C@H](NC(=O)CC[C@H](NC(=O)CCCCCCCCCCCCCCCCC(=O)O)C(=O)O)C(=O)O)C(=O)O)C(=O)O)CSSC[C@@H](C(=O)O)NC(=O)CNC(=O)[C@H](CC(C)C)NC(=O)CNC(=O)[C@H](CO)NC(=O)[C@H](CC(C)C)NC(=O)[C@H](CO)NC(=O)CNC1=O [compound 1448] ({C18 diacid-γGlu-γGlu-γGlu-γGlu}-QEHPQARKYEGAQKKGLSKGCFGLPLDRIGSLSGLGC-OH; disulfide 21-37),33.3
2,CC[C@H](C)[C@@H]1NC(=O)[C@H](CCCNC(=N)N)NC(=O)[C@H](CC(=O)O)NC(=O)[C@H](CC(C)C)NC(=O)[C@@H]2CCCN2C(=O)[C@H](CC(C)C)NC(=O)CNC(=O)[C@H](Cc2ccccc2)NC(=O)[C@@H](NC(=O)CNC(=O)[C@H](CO)NC(=O)[C@H](CO)NC(=O)[C@@H](NC(=O)CNC(=O)[C@@H](NC(=O)[C@H](Cc2c[nH]cn2)NC(=O)[C@H](CCC(N)=O)NC(=O)[C@H](C)NC(=O)CNC(=O)[C@H](Cc2c[nH]cn2)NC(=O)[C@H](Cc2ccc(O)cc2)NC(=O)[C@H](CCCCN)NC(=O)[C@H](CCCNC(=N)N)NC(=O)[C@H](C)NC(=O)COCCOCCNC(=O)COCCOCCNC(=O)CC[C@H](NC(=O)CC[C@H](NC(=O)CC[C@H](NC(=O)CCCCCCCCCCCCCCCCC(=O)O)C(=O)O)C(=O)O)C(=O)O)[C@@H](C)O)C(C)C)CSSC[C@@H](C(=O)O)NC(=O)CNC(=O)[C@H](CC(C)C)NC(=O)CNC(=O)[C@H](CO)NC(=O)[C@H](CC(C)C)NC(=O)[C@H](CO)NC(=O)CNC1=O [compound 1449] ({C18 diacid-γGlu-γGlu-γGlu-AEEA-AEEA}-ARKYHGAQHTGVSSGCFGLPLDRIGSLSGLGC-OH; disulfide 16-32; C-terminus assumed),110.0
3,CC[C@H](C)[C@@H]1NC(=O)[C@H](CCCNC(=N)N)NC(=O)[C@H](CC(=O)O)NC(=O)[C@H](CC(C)C)NC(=O)[C@@H]2CCCN2C(=O)[C@H](CC(C)C)NC(=O)CNC(=O)[C@H](Cc2ccccc2)NC(=O)[C@@H](NC(=O)CNC(=O)[C@H](CO)NC(=O)[C@H](CO)NC(=O)[C@@H](NC(=O)CNC(=O)[C@@H](NC(=O)[C@H](CCCCN)NC(=O)[C@H](CCC(N)=O)NC(=O)[C@H](C)NC(=O)CNC(=O)[C@H](Cc2c[nH]cn2)NC(=O)[C@H](Cc2ccc(O)cc2)NC(=O)[C@H](CCCCN)NC(=O)[C@H](CCCNC(=N)N)NC(=O)[C@H](C)NC(=O)COCCOCCNC(=O)COCCOCCNC(=O)CC[C@H](NC(=O)CC[C@H](NC(=O)CC[C@H](NC(=O)CCCCCCCCCCCCCCCCC(=O)O)C(=O)O)C(=O)O)C(=O)O)[C@@H](C)O)C(C)C)CSSC[C@@H](C(=O)O)NC(=O)CNC(=O)[C@H](CC(C)C)NC(=O)CNC(=O)[C@H](CO)NC(=O)[C@H](CC(C)C)NC(=O)[C@H](CO)NC(=O)CNC1=O [compound 1450] ({C18 diacid-γGlu-γGlu-γGlu-AEEA-AEEA}-ARKYHGAQKTGVSSGCFGLPLDRIGSLSGLGC-OH; disulfide 16-32),84.2
4,CC[C@H](C)[C@@H]1NC(=O)[C@H](CCCNC(=N)N)NC(=O)[C@H](CCC(=O)O)NC(=O)[C@H](CC(C)C)NC(=O)[C@@H]2CCCN2C(=O)[C@H](CC(C)C)NC(=O)CNC(=O)[C@H](Cc2ccccc2)NC(=O)[C@@H](NC(=O)CNC(=O)[C@H](CO)NC(=O)[C@H](CO)NC(=O)[C@@H](NC(=O)CNC(=O)[C@H](CCCCN)NC(=O)[C@H](CCCCN)NC(=O)[C@H](CCC(N)=O)NC(=O)[C@H](C)NC(=O)CNC(=O)[C@H](Cc2c[nH]cn2)NC(=O)[C@H](Cc2ccc(O)cc2)NC(=O)[C@H](CCCCN)NC(=O)[C@H](CCCNC(=N)N)NC(=O)[C@H](C)NC(=O)COCCOCCNC(=O)COCCOCCNC(=O)CC[C@H](NC(=O)CC[C@H](NC(=O)CC[C@H](NC(=O)CCCCCCCCCCCCCCCCC(=O)O)C(=O)O)C(=O)O)C(=O)O)C(C)C)CSSC[C@@H](C(=O)O)NC(=O)CNC(=O)[C@H](CC(C)C)NC(=O)CNC(=O)[C@H](CO)NC(=O)[C@H](CC(C)C)NC(=O)[C@H](CO)NC(=O)CNC1=O [compound 1451] ({C18 diacid-γGlu-γGlu-γGlu-AEEA-AEEA}-ARKYHGAQKKGVSSGCFGLPLERIGSLSGLGC-OH; disulfide 16-32),47.5
5,CC[C@H](C)[C@@H]1NC(=O)[C@H](CCCNC(=N)N)NC(=O)[C@H](CC(=O)O)NC(=O)[C@H](CC(C)C)NC(=O)[C@@H]2CCCN2C(=O)[C@H](CC(C)C)NC(=O)CNC(=O)[C@H](Cc2ccccc2)NC(=O)[C@@H](NC(=O)CNC(=O)[C@H](CCC(N)=O)NC(=O)[C@H](CO)NC(=O)[C@H](CC(C)C)NC(=O)CNC(=O)[C@H](CCCCN)NC(=O)[C@H](CCCCN)NC(=O)[C@H](CCC(N)=O)NC(=O)[C@H](C)NC(=O)CNC(=O)[C@H](CCCCN)NC(=O)[C@H](Cc2ccc(O)cc2)NC(=O)[C@H](CCCCN)NC(=O)[C@H](CCCNC(=N)N)NC(=O)[C@H](C)NC(=O)COCCOCCNC(=O)COCCOCCNC(=O)COCCOCCNC(=O)CC[C@H](NC(=O)CC[C@H](NC(=O)CC[C@H](NC(=O)CC[C@H](NC(=O)CC[C@H](NC(=O)CCCCCCCCCCCCCCCCC(=O)O)C(=O)O)C(=O)O)C(=O)O)C(=O)O)C(=O)O)CSSC[C@@H](C(=O)O)NC(=O)CNC(=O)[C@H](CC(C)C)NC(=O)CNC(=O)[C@H](CO)NC(=O)[C@H](CC(C)C)NC(=O)[C@H](CO)NC(=O)CNC1=O [compound 1452] ({C18 diacid-γGlu-γGlu-γGlu-γGlu-γGlu-AEEA-AEEA-AEEA}-ARKYKGAQKKGLSQGCFGLPLDRIGSLSGLGC-OH; disulfide 16-32),57.6
6,CC[C@H](C)[C@@H]1NC(=O)[C@H](CCCNC(=N)N)NC(=O)[C@H](CC(=O)O)NC(=O)[C@H](CC(C)C)NC(=O)[C@@H]2CCCN2C(=O)[C@H](CC(C)C)NC(=O)CNC(=O)[C@H](Cc2ccccc2)NC(=O)[C@@H](NC(=O)CNC(=O)[C@H](CCC(N)=O)NC(=O)[C@H](CO)NC(=O)[C@H](CC(C)C)NC(=O)CNC(=O)[C@H](CCCCN)NC(=O)[C@H](CCCCN)NC(=O)[C@H](CCC(N)=O)NC(=O)[C@H](C)NC(=O)CNC(=O)[C@H](CCCCN)NC(=O)[C@H](Cc2ccc(O)cc2)NC(=O)[C@H](CCCCN)NC(=O)[C@H](CCCNC(=N)N)NC(=O)[C@H](C)NC(=O)COCCOCCNC(=O)COCCOCCNC(=O)COCCOCCNC(=O)COCCOCCNC(=O)CC[C@H](NC(=O)CC[C@H](NC(=O)CC[C@H](NC(=O)CC[C@H](NC(=O)CCCCCCCCCCCCCCCCC(=O)O)C(=O)O)C(=O)O)C(=O)O)C(=O)O)CSSC[C@@H](C(=O)O)NC(=O)CNC(=O)[C@H](CC(C)C)NC(=O)CNC(=O)[C@H](CO)NC(=O)[C@H](CC(C)C)NC(=O)[C@H](CO)NC(=O)CNC1=O [compound 1454] ({C18 diacid-γGlu-γGlu-γGlu-γGlu-AEEA-AEEA-AEEA-AEEA}-ARKYKGAQKKGLSQGCFGLPLDRIGSLSGLGC-OH; disulfide 16-32; C-terminus assumed),63.6
